The values that follow come from ChEMBL document CHEMBL5584354, “Impact of Conjugation of the Reactive Oxygen Species (ROS)-Generating Catalytic Moiety with Membrane-Active Antimicrobial Peptoids: Promoting Multitarget Mechanism and Enhancing Selectivity” (J Med Chem, 2024).

Data set [1] can be described thus: Cytotoxicity against mouse L929 cells assessed as reduction in cell survival at 6.3 uM incubated for 24 hrs by WST-8 assay relative to control. To be noted: read-out: Survival. The format is toxicity, cell-based.
A short description of data set [2]: Cytotoxicity against mouse RAW264.7 cells assessed as cell survival at 5 uM incubated for 24 hrs by […] relative to control. The format is toxicity, cell-based. To be noted: read-out: Survival.
Data set [3] is described as follows: Cytotoxicity against mouse RAW264.7 cells assessed as cell survival at 5 uM incubated for 24 hrs in presence of nickel by […] relative to control. To be noted: read-out: Survival. The format is toxicity, cell-based.
The nature of data set [4]: Cytotoxicity against mouse RAW264.7 cells assessed as cell survival at 5 uM incubated for 24 hrs in presence of copper by […] relative to control. It is filed as toxicity, cell-based. To be noted: read-out: Survival.
Data set [5] is described as follows: Cytotoxicity against HEK293 cells assessed as reduction in cell survival at 6.3 uM incubated for 24 hrs by WST-8 assay relative to control. It is filed as toxicity, cell-based. To be noted: human, read-out: Survival.
A short description of data set [6]: Cytotoxicity against mouse RAW264.7 cells assessed as cell viability at 10 uM incubated for 24 hrs by […] relative to control. The format is toxicity, cell-based. To be noted: read-out: Activity.
Data set [7] deals with RAW264.7. Kind of data set: Antiinflammatory activity in LPS-stimulated mouse RAW264.7 cells assessed as reduction in nitrite production at 10 uM incubated for 16 hrs by ELISA relative to control. The format is functional. Set-up: scale not given: the % may be the effect or the level left.
In data set [8] the test system is Cell membrane. Description: Disruption of inner membrane in Escherichia coli ATCC 25922 assessed as increase in absorbance incubated for 1 hr by ONPG assay. The format is cell membranes. To be noted: dose 0-25 µM.
A short description of data set [9]: Hemolytic activity in male Sprague-Dawley rat erythrocytes assessed as concentration required for 50% hemolysis incubated for 1 hr by absorbance based method. It is filed as toxicity, cell-based, Erythrocyte.
Data set [10] can be described thus: Hemolytic activity in male Sprague-Dawley rat erythrocytes at 100 uM incubated for 1 hr by absorbance based method relative to control. It is filed as toxicity, cell-based, Erythrocyte. To be noted: read-out: Activity.
Data set [11] concerns Escherichia coli. Description: Antibacterial activity against carbapenem-resistant Escherichia coli NMS11035 harboring extended-spectrum beta-lactamase assessed as inhibition of bacterial growth incubated for 24 hrs by broth dilution method. The format is functional.
Data set [12] deals with RAW264.7. Kind of data set: Antiinflammatory activity in LPS-stimulated mouse RAW264.7 cells assessed as reduction in TNFalpha production at 10 uM incubated for 16 hrs by ELISA relative to control. More on the design: scale not given: the % may be the effect or the level left. The format is functional.
In the next data set the test system is Lipopolysaccharide (LPS). Description: Binding affinity to Escherichia coli O111:B4 LPS at 0 to 25 uM BODIPY-TR-cadaverine substitution assay. To be noted: dose 0-25 µM. It is filed as subcellular.
A further data set deals with MRC5. Description: Cytotoxicity against human MRC5 cells assessed as cell killing incubated for 24 hrs by MTS assay. It is filed as toxicity, cell-based. To be noted: mrc5, 24 h.
Data set [13] concerns Escherichia coli. Description: Antibacterial activity against Escherichia coli ATCC 25922 assessed as inhibition of bacterial growth incubated for 24 hrs by broth dilution method. It is filed as functional.
The next data set relates to HEK293. Description: Cytotoxicity against HEK293 cells assessed as cell killing incubated for 24 hrs by MTS assay. To be noted: human, hek293, 24 h. It is filed as toxicity, cell-based.
The test system of data set [14] is RAW264.7. Kind of data set: Antiinflammatory activity in LPS-stimulated mouse RAW264.7 cells assessed as reduction in IL-6 production at 10 uM incubated for 16 hrs by ELISA relative to control. It is filed as functional. More on the design: scale not given: the % may be the effect or the level left.
Another data set relates to Acinetobacter baumannii. Description: Antibacterial activity against carbapenem-resistant Acinetobacter baumannii NMS1707 harboring extended-spectrum beta-lactamase assessed as inhibition of bacterial growth incubated for 24 hrs by broth dilution method. It is filed as functional.
Data set [15] concerns Escherichia coli. Description: Induction of lipid peroxidation in Escherichia coli ATCC 25922 assessed as increase in MDA level at 10 uM incubated for 2 hrs by TBARS assay. It is filed as functional, organism-based.
In data set [16] the test system is Escherichia coli. Description: Antibacterial activity against colistin-resistant Escherichia coli NMS12 harboring extended-spectrum beta-lactamase assessed as inhibition of bacterial growth incubated for 24 hrs by broth dilution method. The format is functional.
Data set [17] in a line: Cytotoxicity against mouse RAW264.7 cells assessed as cell viability at 20 uM incubated for 24 hrs by […] relative to control. The format is toxicity, cell-based. To be noted: read-out: Activity.
Data set [18] in a line: Selectivity index, ratio of HC10 for hemolytic activity in male Sprague-Dawley rat erythrocytes to MIC for antibacterial activity against Escherichia coli ATCC 25922. It is filed as toxicity. To be noted: read-out: Selectivity Index.
The test system of another data set is HaCaT. Description: Cytotoxicity against human HaCaT cells assessed as cell killing incubated for 24 hrs by MTS assay. It is filed as toxicity, cell-based.
The subject of data set [19] is RAW264.7. Description: Cytotoxicity against mouse RAW264.7 cells assessed as cell killing incubated for 24 hrs by MTS assay. It is filed as toxicity, cell-based. To be noted: raw264.7, 24 h.
Data set [20] in a line: Hemolytic activity in male Sprague-Dawley rat erythrocytes at 50 uM incubated for 1 hr by absorbance based method relative to control. To be noted: read-out: Activity. It is filed as toxicity, cell-based, Erythrocyte.
Data set [21] deals with Cell membrane. Kind of data set: Disruption of outer membrane in Escherichia coli ATCC 25922 assessed as increase in absorbance measured every 5 mins for 90 mins by nitrocefin assay. The format is cell membranes. To be noted: dose 0-25 µM.
In a further data set the test system is Klebsiella pneumoniae. Description: Antibacterial activity against carbapenem-resistant Klebsiella pneumoniae NMS118 harboring extended-spectrum beta-lactamase assessed as inhibition of bacterial growth incubated for 24 hrs by broth dilution method. It is filed as functional.
The next data set deals with Erythrocyte. Description: Hemolytic activity in male Sprague-Dawley rat erythrocytes assessed as concentration required for 10% hemolysis incubated for 1 hr by absorbance based method. The format is toxicity, cell-based.
The subject of data set [22] is Escherichia coli. Kind of data set: Induction of lipid peroxidation in Escherichia coli ATCC 25922 at 12.5 uM incubated for 1 hrs by BODIPY 581/591 C11 dye based flow cytometry analysis. The format is functional, organism-based.
Another data set concerns Staphylococcus aureus. Description: Antibacterial activity against Staphylococcus aureus ATCC 25923 assessed as inhibition of bacterial growth incubated for 24 hrs by broth dilution method. The format is functional.
The test system of data set [23] is Escherichia coli. Description: Induction of lipid peroxidation in Escherichia coli ATCC 25922 assessed as increase in green fluorescence at 12.5 uM incubated for 1 hrs by BODIPY 581/591 C11 dye based confocal microscopic analysis. The format is functional, organism-based.
Data set [24] has as its system RAW264.7. Description: Antiinflammatory activity in LPS-stimulated mouse RAW264.7 cells assessed as reduction in IL-1beta production at 10 uM incubated for 16 hrs by ELISA relative to control. The format is functional. Set-up: scale not given: the % may be the effect or the level left.
The subject of the next data set is DNA. Description: Binding affinity to pUC19 plasmid DNA (unknown origin) assessed as smearing and retardation of DNA bands at 25 uM incubated for 2 hrs by agarose gel imaging method. The format is nucleic-acid assay.
Data set [25] is described as follows: Hemolytic activity in male Sprague-Dawley rat erythrocytes at 25 uM incubated for 1 hr by absorbance based method relative to control. The format is toxicity, cell-based, Erythrocyte. To be noted: read-out: Activity.

≈ marks a conversion by molar mass, not a printed value. Calls of active or inactive are those of the source. No cut-off for these calls is given here. Non-standard residues stand in square brackets, D forms with d. Residues, ends and D or L forms follow the SMILES beside them. Gly(N(CH2)2(3-indolyl)) = O=C(O)CNCCc1c[nH]c2ccccc12; Nspe = C[C@H](NCC(=O)O)c1ccccc1; Nlys = NCCCCNCC(=O)O

For the molecule `CC[C@H](C)[C@H](NC(=O)CN)C(=O)NCC(=O)N[C@@H](C)C(=O)N[C@H](C(=O)N[C@@H](CC(C)C)C(=O)N[C@@H](CCCCN)C(=O)N[C@H](C(=O)N[C@@H](CC(C)C)C(=O)N[C@H](C(=O)N[C@H](C(=O)NCC(=O)N[C@@H](CC(C)C)C(=O)N1CCC[C@H]1C(=O)N[C@@H](C)C(=O)N[C@@H](CC(C)C)C(=O)N[C@H](C(=O)N[C@@H](CO)C(=O)N[C@@H](Cc1c[nH]c2ccccc12)C(=O)N[C@H](C(=O)N[C@@H](CCCCN)C(=O)N[C@@H](CCCNC(=N)N)C(=O)N[C@@H](CCCCN)C(=O)N[C@@H](CCCNC(=N)N)C(=O)N[C@@H](CCC(N)=O)C(=O)N[C@@H](CCC(N)=O)C(N)=O)[C@@H](C)CC)[C@@H](C)CC)[C@@H](C)O)[C@@H](C)O)C(C)C)C(C)C` [MELITTIN], the viability at 24 h, 6.3 µM in [1] and in data set [5] was under 21.5% in each case. Further, the viability at 24 h, 5 µM in data set [2], in data set [3] and in [4] was under 24.6% in each case.
Regarding `C[C@@H](c1ccccc1)N(CC(=O)N(CCCCN)CC(=O)N(CCc1c[nH]c2ccccc12)CC(=O)N(CCc1c[nH]c2ccccc12)CC(N)=O)C(=O)CN(CCCCN)C(=O)CN(CCCCN)C(=O)CN(C(=O)CN(C(=O)CN(CCCCN)C(=O)CN(C(=O)CN(C(=O)CNCCCCN)[C@@H](C)c1ccccc1)[C@@H](C)c1ccccc1)[C@@H](C)c1ccccc1)[C@@H](C)c1ccccc1` (H-[Nlys][Nspe][Nspe][Nlys][Nspe][Nspe][Nlys][Nlys][Nspe][Nlys][Gly(N(CH2)2(3-indolyl))][Gly(N(CH2)2(3-indolyl))]-NH2), in data set [6], the viability at 24 h, 10 µM came out at 55.9%. The Activity is 88.7% in the data set with RAW264.7 [7]; “Dose-Dependent Effect” in the data set with Cell membrane [8]; 54.4% with RAW264.7 [12]; 99% in the data set with RAW264.7 [14]; “Dose-Dependent Effect” with Cell membrane [21]; 72.9% with RAW264.7 [24]. In data set [9], the HC50 at 1 h is over 100 µM. Further, the hemolysis at 1 h, 100 µM in data set [10] was 6.7%. Moreover, the minimum inhibitory concentration (MIC) in the data set on Escherichia coli [11] is 6.3 µM (≈ 11.7 µg/mL); with Escherichia coli [13], 6.3 µM (≈ 11.7 µg/mL); with Acinetobacter baumannii, 3.1 µM (≈ 5.78 µg/mL); with Escherichia coli [16], 12.5 µM (≈ 23.3 µg/mL); in the data set on Klebsiella pneumoniae it was 12.5 µM (≈ 23.3 µg/mL); with Staphylococcus aureus, 6.3 µM (≈ 11.7 µg/mL). The outcome with Lipopolysaccharide (LPS), with Escherichia coli [15], with Escherichia coli [22], in the data set on Escherichia coli [23] and with DNA was Active. For the same molecule, the LC50 stood at 11.8 µM with MRC5, 16.3 µM with HEK293, 18.8 µM in the data set with HaCaT and 14.9 µM with RAW264.7 [19]. The viability at 24 h, 20 µM in [17] was 14.7%. In addition, the selectivity ratio in [18] is over 15.8. In data set [20], the hemolysis at 1 h, 50 µM was determined as 7.85%. Also, the HC10 in the data set on Erythrocyte is over 100 µM. Besides, in data set [25], the hemolysis at 1 h, 25 µM amounted to 2.72%.
